Test results as given in PubChem BioAssay (NCI).
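Following 48 hours of exposure in 96-well plates, responses at five concentrations were used to interpolate endpoints linearly. GI50: concentration for 50% inhibition of growth. TGI: concentration producing complete growth inhibition.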

Legend:
Assay in all cases: growth of human tumour cells (NCI), 48 h
CAKI-1 renal = system: CAKI-1 renal
IGROV1 ovarian = system: IGROV1 ovarian
SK-MEL-5 melanoma = system: SK-MEL-5 melanoma
SF-539 CNS = system: SF-539 CNS
SNB-75 CNS = system: SNB-75 CNS
HOP-92 NSCLC = system: HOP-92 NSCLC
MCF7 breast = system: MCF7 breast
786-0 renal = system: 786-0 renal
EKVX NSCLC = system: EKVX NSCLC
SF-268 CNS = system: SF-268 CNS

SMILES	GI50 (CAKI-1 renal)	TGI (CAKI-1 renal)	GI50 (IGROV1 ovarian)	TGI (IGROV1 ovarian)	GI50 (SK-MEL-5 melanoma)	TGI (SK-MEL-5 melanoma)	GI50 (SF-539 CNS)	TGI (SF-539 CNS)	GI50 (SNB-75 CNS)	TGI (SNB-75 CNS)	GI50 (HOP-92 NSCLC)	TGI (HOP-92 NSCLC)	GI50 (MCF7 breast)	TGI (MCF7 breast)	GI50 (786-0 renal)	TGI (786-0 renal)	GI50 (EKVX NSCLC)	TGI (EKVX NSCLC)	GI50 (SF-268 CNS)	TGI (SF-268 CNS)
COc1ccc2c(c1)c(C1(c3cn(C)c4ccc(OC)cc34)C(=O)Nc3ccc(F)cc31)cn2C	2.06 µM	45.3 µM	4.26 µM	> 100 µM	5.64 µM	18.9 µM	15.6 µM	85.2 µM	3.09 µM	> 100 µM	3.84 µM	58.7 µM	3.61 µM	> 100 µM	6.51 µM	> 100 µM	3.05 µM	> 100 µM	5.7 µM	> 100 µM
CCOC(=O)CC1(O)C=CC(=O)C=C1	2.62 µg/mL	4.71 µg/mL	0.885 µg/mL	2.19 µg/mL	1.96 µg/mL	3.86 µg/mL	0.581 µg/mL	2.68 µg/mL	1.95 µg/mL	4.38 µg/mL	3.22 µg/mL	5.44 µg/mL	0.824 µg/mL	2.59 µg/mL	0.596 µg/mL	2 µg/mL	3.24 µg/mL	6.16 µg/mL	0.57 µg/mL	1.92 µg/mL
COc1ccc2c(c1)CC[C@@H]1[C@@H]2CC[C@@]2(C)[C@H]1CC1(CCCCC1)[C@@H]2O	18.2 µM	33.9 µM	30.9 µM	80.7 µM	8.06 µM	20.4 µM	4.22 µM	16.6 µM	16.4 µM	35.1 µM	16 µM	33 µM	18.4 µM	37.5 µM	3.81 µM	14.7 µM	18.3 µM	35.5 µM	12 µM	26.6 µM
CC(=O)O[C@@H]1CO[C@H]2O[C@H]3[C@@H](C(C=O)=C[C@H](O)[C@@H]4C5=C(C(C)C)CC[C@]5(C)CC[C@@]34C)[C@@]2(O)C1=O	–	0.486 µM	–	0.714 µM	–	0.577 µM	–	0.37 µM	–	1.35 µM	–	0.554 µM	–	1.69 µM	–	0.253 µM	–	1.28 µM	–	0.667 µM
C(=C1c2ccccc2-c2ccccc21)c1ccccn1	3.23 µM	19.6 µM	4.89 µM	35.9 µM	11.5 µM	26.5 µM	11.7 µM	50.2 µM	16 µM	> 100 µM	7.43 µM	74.5 µM	2.71 µM	21.3 µM	14.7 µM	29.8 µM	5.85 µM	38.3 µM	12.4 µM	57.7 µM
Brc1ccc([I+]c2ccc(Br)cc2)cc1	1.9 µM	8.98 µM	1.06 µM	6.8 µM	0.545 µM	1.83 µM	1.37 µM	4.28 µM	1.6 µM	8.03 µM	0.822 µM	5.69 µM	0.825 µM	10.2 µM	1.97 µM	11.2 µM	1.02 µM	3.04 µM	1.03 µM	2.4 µM
CCC[C@H](N[C@@H]1CCc2cc(F)cc(F)c2C1)C(=O)Nc1cn(C(C)(C)CNCC(C)(C)C)cn1	5.94 µM	29 µM	28.6 µM	> 100 µM	12.2 µM	24.8 µM	16.7 µM	34.6 µM	3.68 µM	64.8 µM	1.47 µM	11.1 µM	15.6 µM	> 56.7 µM	13.5 µM	54.2 µM	21 µM	> 100 µM	20.4 µM	> 100 µM
COc1cccc(/C=N\Nc2ccc([N+](=O)[O-])cn2)c1O	1.74 µM	4.14 µM	1.91 µM	13.5 µM	1.76 µM	5.92 µM	2.93 µM	8.65 µM	8.78 µM	57.2 µM	2.8 µM	9.44 µM	3.18 µM	71.1 µM	3.53 µM	28.9 µM	3.59 µM	29.3 µM	2.58 µM	23.8 µM
CC(C)(C)c1ccc([I+]c2ccc(C(C)(C)C)cc2)cc1	8.3 µM	20.8 µM	2.33 µM	12.2 µM	0.348 µM	1.19 µM	2.08 µM	10.2 µM	1.44 µM	6.1 µM	1.25 µM	3.5 µM	1.35 µM	9.17 µM	1.69 µM	3.77 µM	1.42 µM	5.24 µM	1.93 µM	7.53 µM
Nc1cc(-c2ccccc2)ccc1O	17.9 µM	79.9 µM	> 100 µM	> 100 µM	> 100 µM	> 100 µM	> 100 µM	> 100 µM	> 100 µM	> 100 µM	> 100 µM	> 100 µM	> 100 µM	> 100 µM	> 100 µM	> 100 µM	82.2 µM	> 100 µM	65.5 µM	> 100 µM
O=C1Nc2ccccc2C1Cc1ccccc1 (stereo not given)	–	> 100 µM	–	> 100 µM	–	> 100 µM	–	> 100 µM	–	> 100 µM	–	> 100 µM	–	> 100 µM	–	> 100 µM	–	> 100 µM	–	> 100 µM
COCCOC(=O)C1=C(C)NC2=C(C(=O)CC(c3ccccc3OC)C2)C1c1cccc(O)c1 (stereo not given)	4.43 µM	31.3 µM	9.54 µM	52.4 µM	3.54 µM	16.6 µM	11.9 µM	43.4 µM	2.43 µM	30.9 µM	1.04 µM	15.4 µM	4.31 µM	72.4 µM	12.2 µM	51.6 µM	14.4 µM	> 100 µM	15.8 µM	53.4 µM
CN1C(=O)CNC(=O)[C@H](NC(=O)c2nc3ccccc3cc2O)CSSC[C@H]1C(=O)NCCc1nc2ccccc2cc1O	> 46.6 µM	> 78.1 µM	32 µM	> 100 µM	3.05 µM	12.7 µM	15.2 µM	39.1 µM	15 µM	33.9 µM	> 100 µM	> 100 µM	6.23 µM	27.4 µM	22.1 µM	49 µM	11 µM	> 61.4 µM	4.19 µM	37.9 µM
CC(=O)OC1COC(S[As](C)C)C(OC(C)=O)C1OC(C)=O (stereo not given)	0.041 µM	0.74 µM	0.225 µM	1.58 µM	0.0658 µM	0.253 µM	0.0713 µM	0.315 µM	3.49 µM	21.7 µM	0.0332 µM	0.28 µM	0.165 µM	5.2 µM	0.0811 µM	1.12 µM	2.07 µM	17.1 µM	1.23 µM	11.6 µM
CCN(CC)CCOc1ccc(/C=C2\CC3C4CCC5=CC(=O)CC[C@]5(C)C4CC[C@]3(C)C2=O)cc1OC (stereo not given in full)	2.66 µM	6.54 µM	22.7 µM	> 100 µM	1.63 µM	3.28 µM	2.06 µM	6.13 µM	3.02 µM	7.78 µM	3.14 µM	7.51 µM	3.02 µM	13.7 µM	2.18 µM	4.61 µM	4.88 µM	19.5 µM	2.34 µM	5.62 µM
COc1ccc2[nH]cc(-c3nc(-c4cn(C)c5ccncc45)cs3)c2c1	1.84 µM	3.35 µM	1.93 µM	3.54 µM	1.64 µM	3.04 µM	1.9 µM	3.37 µM	15.3 µM	29 µM	1.9 µM	3.63 µM	1.81 µM	3.65 µM	1.54 µM	2.9 µM	1.92 µM	3.92 µM	1.91 µM	3.61 µM
